Paper PMC8853664, “Protein visualization and manipulation in Drosophila through the use of epitope tags recognized by nanobodies” (eLife, 2022)

Test system: REPTOR
Assay: REPTOR localization in adult enterocytes after rapamycin treatment, detected with nanobody-GFP
Type: in vivo, Drosophila
Conditions: rapamycin 50 µM in food, 15 hr; adult enterocytes co-expressing VHH05-REPTOR-127D01 and Nb127D01-GFP or NbVHH05-GFP; confocal imaging
Description: To address whether NanoTagged POIs can be detected in vivo, we generated UAS-VHH05-REPTOR-127D01 flies. A previous study has shown that in S2 cells, the transcription factor REPTOR is enriched in the cytoplasm under normal conditions but translocates into the nucleus upon rapamycin treatment ([Tiebe et al., 2015]). To test whether the changes in REPTOR localization can be detected using the nanobodies, we co-expressed NanoTagged REPTOR along with Nb127D01-GFP or NbVHH05-GFP specifically in adult enterocytes (ECs). In the absence of a NanoTagged POI, Nb127D01-GFP and NbVHH05-GFP were detected in both the cytoplasm and nuclei (Figure 5G1). In contrast, when co-expressed with NanoTagged REPTOR, the nanobody-GFP signals were enriched in the cytoplasm of ECs under normal food conditions (Figure 5H and J). […] Similar changes were absent from ECs that express Nb127D01-GFP or NbVHH05-GFP alone (Figure 5G1).
For rapamycin treatment, rapamycin (LC Laboratories, R-5000) was dissolved in DMSO and mixed into the media when preparing food vials. The rapamycin dose was 50 µM. […]

CO[C@H]1C[C@@H]2CC[C@@H](C)[C@@](O)(O2)C(=O)C(=O)N2CCCC[C@H]2C(=O)O[C@H]([C@H](C)C[C@@H]2CC[C@@H](O)[C@H](OC)C2)CC(=O)[C@H](C)/C=C(\C)[C@@H](O)[C@@H](OC)C(=O)[C@H](C)C[C@H](C)/C=C/C=C/C=C/1C [rapamycin, Rapamycin]
REPTOR subcellular localization: leads to translocation of REPTOR into the nucleus
